Our source for the IC50, PRA and Blood pressure values is patent US4870183A, “Novel amino acid derivatives” (priority 1986, dated 1989).

In assay [1] the target is T1, human renin (Homo sapiens, UniProt P00797).
T1 sequence (P00797 67-406): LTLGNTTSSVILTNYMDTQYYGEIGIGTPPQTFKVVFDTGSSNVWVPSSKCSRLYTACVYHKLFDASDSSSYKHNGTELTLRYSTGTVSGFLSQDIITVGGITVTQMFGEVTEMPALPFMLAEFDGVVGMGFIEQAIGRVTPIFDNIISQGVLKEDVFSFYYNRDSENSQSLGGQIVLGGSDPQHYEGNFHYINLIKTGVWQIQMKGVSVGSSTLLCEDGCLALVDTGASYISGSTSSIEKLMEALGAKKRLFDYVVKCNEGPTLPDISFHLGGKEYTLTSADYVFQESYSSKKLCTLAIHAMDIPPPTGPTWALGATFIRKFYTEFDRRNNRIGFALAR
Put plainly: Inhibitory effect on human renin-sheep renin substrate reaction system in vitro. The assay is classed as biochemical. The method, then:
Inhibitory effect on human renin-sheep renin substrate reaction system in vitro
The mixture was incubated for 15 minutes on a water bath at 37° C., and the reaction mixture was allowed to stand for 5 minutes on a water bath at 100° C. to stop the reaction. After cooling, 200 μl of the solution was taken up and the amount of angiotensin I produced by the addition of renin was determined by radioimmunoassay using renin riabead kit (DAINABOT).
The inhibitory effect was calculated by the following equation.
As a control, the same procedure as above was carried out by using 50 μl of dimethyl sulfoxide alone in place of the 50 μl of dimethyl sulfoxide solution containing an amino acid compound of the present invention. [formula]

Assay [2] deals with T2, plasma renin activity (Callithrix jacchus, UniProt Q9TSZ1).
T2 construct: from tissue; host or cells: plasma of furosemide-treated conscious male common marmosets
T2 sequence (Q9TSZ1 61-400): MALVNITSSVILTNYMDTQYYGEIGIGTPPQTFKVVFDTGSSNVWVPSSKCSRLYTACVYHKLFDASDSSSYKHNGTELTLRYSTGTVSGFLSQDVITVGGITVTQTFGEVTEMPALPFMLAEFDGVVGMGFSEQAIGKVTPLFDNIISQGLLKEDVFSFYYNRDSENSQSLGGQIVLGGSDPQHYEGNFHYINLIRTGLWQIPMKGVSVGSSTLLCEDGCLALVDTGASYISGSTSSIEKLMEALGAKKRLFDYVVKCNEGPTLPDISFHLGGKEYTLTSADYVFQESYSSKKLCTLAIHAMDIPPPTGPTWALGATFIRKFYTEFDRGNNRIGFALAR
Nature of the assay: Renin inhibitory effect in plasma on common marmoset (plasma renin activity after oral dosing). To be noted: 30 mg/kg oral single dose, furosemide-treated conscious marmosets, control 43.16. It counts as in vivo. The protocol: Renin Inhibitory Effect in Plasma on Common Marmoset
The experiment was carried out by using common marmoset as described in K. G. Hofbauer et al., CLINICAL AND EXPERIMENTAL HYPERTENSION, Vol. A5, Nos. 7 & 8 (1983), pages 1237-1247.
Furosemide was administered orally three times to common marmoset having a lower salt diet at 15 mg per kilogram per day every other day to create a high renin state. The experiment was carried out on the third day after the last furosemide dose.
Three conscious male marmosets weighing 310-460 g were placed into small restraining chair, and by using a catheter into the femoral artery, blood collecting was carried out at intervals of 60, 180 and 300 minutes.
Collected blood samples were centrifuged at 1200×g for 15 minutes at 4° C. Two hundred μl of the plasma was taken up and incubated for 60 minutes at 37° C., and the plasma renin activity was measured by radioimmunoassay using renin riabead kit (DAINABOT).
Compound A of this invention was dissolved in dilute hydrochloric acid, and administered orally at single dose of 30 mg/kg using catheter.

The target of assay [3] is T3, renin in human high renin plasma (Homo sapiens, UniProt P00797).
T3 construct: from tissue; host or cells: human high renin plasma
T3 sequence (P00797 67-406): T1 sequence (P00797 67-406)
Nature of the assay: Renin inhibitory effect in a human high renin plasma. The assay is classed as biochemical. The protocol: Renin Inhibitory Effect in a Human High Renin Plasma
Two hundred μl of the mixture was placed on an ice bath, at 4° C., and remaining mixture (800 μl) was incubated for 60 minutes at 37° C. on a water bath. Two hundred μl of the incubated remaining mixture was chilled immediately on an ice bath, and the amount (A) of angiotensin I produced was determined by radioimmunoassay using renin riabead kit (DAINABOT).
The amount (B) of angiotensin I in the mixture placed on an ice bath at 4° C. was also determined by radioimmunoassay.
As a control, the same procedure as above was carried out by using 100 μl of dimethyl sulfoxide alone in place of 100 μl of dimethyl sulfoxide solution containing an amino acid compound of the present invention.
The net amount was estimated as the difference between A and B.
The inhibitory effect was calculated by the following equation. [formula]

The nature of assay [4]: Hypotensive effect in marmoset (tail cuff blood pressure, high renin state). The assay is classed as in vivo, common marmoset. To be noted: 30 mg/kg oral, conscious high renin marmoset, control 99.7. The method, then: Hypotensive Effect in Marmoset
The experiment was carried out by using common marmoset as described in K. G. Hofbauer et al., Clinical and Experimental Hypertension, Vol. A5, Nos. 7 & 8 pages 1237-1247.
Furosemide was administered orally three times to common marmoset at 15 mg per kilogram per day every other day to create a high renin state. Blood pressure of conscious marmoset was measured on the third day after the last furosemide dose.
A conscious male marmoset weighing 340 g was placed into small restraining chair. Blood pressure was measured on the tail cuff method using pretismograph. Compound A of this invention was dissolved in dilute hydrochloric acid, and administered orally at 30 mg/kg by using a catheter.

Molecules are shown by their SMILES.

With `CC(C)OC(=O)C(O)[C@H](CC1CCCCC1)NC(=O)[C@H](Cc1c[nH]cn1)NC(=O)C(Cc1ccccc1F)Cc1ccccc1F` (mixture of isomers) [Compound A, (2RS, 3S)-3-{N-[Bis(2-fluorobenzyl)acetyl]-L-histidyl}amino-4-cyclohexyl-2-hydroxybutyric acid isopropyl ester], the values for the IC50 in assay [1] and in assay [3] were 9.4 nM and 130 nM, respectively. Besides, the PRA in assay [2] (60 minutes after administration) turned out to be 30.35 ng angiotensin I/ml/hr; in assay [2] (180 minutes after administration), 18.89 ng angiotensin I/ml/hr; in assay [2] (300 minutes after administration), 22.93 ng angiotensin I/ml/hr. Further, the Blood pressure came to 94.7 mmHg in assay [4] (0.5 hours after administration); 86.2 mmHg in assay [4] (1 hour after administration); 89.7 mmHg in assay [4] (2 hours after administration); 86.2 mmHg in assay [4] (3 hours after administration); 85.7 mmHg in assay [4] (5 hours after administration).
